Assay results: ChEMBL document CHEMBL1201862, “PubChem BioAssay data set” (2004)
Calls of active or inactive are those of the source.

How the values were obtained:
[1] = biological target: Beta-galactosidase (Escherichia coli, UniProt Q8VNN2); assay: Dose response counterscreen for EBI2 assay utilizing the enzyme, b-galactosidase.; format: functional
[2] = biological target: Dual specificity protein phosphatase 3 (Homo sapiens, UniProt P51452); assay: VHR phosphatase inhibition, dose response, selectivity assay for STEP inhibitor project, biochemical (AID 602374); format: functional; settings: read-out: IC50_Mean
Sequence of Dual specificity protein phosphatase 3 (P51452 whole entry): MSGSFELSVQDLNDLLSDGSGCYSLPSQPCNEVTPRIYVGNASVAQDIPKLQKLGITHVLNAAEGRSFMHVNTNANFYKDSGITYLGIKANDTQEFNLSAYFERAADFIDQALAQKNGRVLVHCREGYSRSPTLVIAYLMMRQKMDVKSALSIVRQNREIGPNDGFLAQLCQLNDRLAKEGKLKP

[3] = biological target: Tyrosine-protein phosphatase non-receptor type 11 (Homo sapiens, UniProt Q06124); assay: PTPN11 enzyme inhibitors – biochemical, selectivity assay for STEP inhibitor project, dose response (AID 602367); format: functional; settings: read-out: IC50_Mean
Sequence of Tyrosine-protein phosphatase non-receptor type 11 (Q06124 whole entry): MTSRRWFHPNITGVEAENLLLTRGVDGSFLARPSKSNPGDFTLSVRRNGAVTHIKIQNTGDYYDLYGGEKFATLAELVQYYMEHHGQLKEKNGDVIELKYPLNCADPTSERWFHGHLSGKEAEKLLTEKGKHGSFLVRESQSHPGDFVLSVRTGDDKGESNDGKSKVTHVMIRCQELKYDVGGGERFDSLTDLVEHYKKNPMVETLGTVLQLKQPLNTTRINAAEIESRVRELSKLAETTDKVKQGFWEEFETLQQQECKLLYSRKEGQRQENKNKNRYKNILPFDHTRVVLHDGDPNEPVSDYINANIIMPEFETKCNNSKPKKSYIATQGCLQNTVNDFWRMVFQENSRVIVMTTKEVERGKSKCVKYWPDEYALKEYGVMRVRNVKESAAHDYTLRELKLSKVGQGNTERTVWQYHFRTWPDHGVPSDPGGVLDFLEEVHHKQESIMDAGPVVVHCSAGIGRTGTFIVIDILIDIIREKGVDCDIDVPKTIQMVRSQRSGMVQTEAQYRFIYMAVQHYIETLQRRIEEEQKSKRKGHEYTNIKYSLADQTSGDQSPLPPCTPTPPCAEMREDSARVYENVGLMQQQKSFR

[4] = biological target: Tyrosine-protein phosphatase non-receptor type 5 (Homo sapiens, UniProt P54829); assay: PTPN5 enzyme inhibition – biochemical, fluorescence intensity, uHTS hits, confirmation (AID 602372); format: functional; settings: read-out: IC50_Mean
Sequence of Tyrosine-protein phosphatase non-receptor type 5 (P54829 whole entry): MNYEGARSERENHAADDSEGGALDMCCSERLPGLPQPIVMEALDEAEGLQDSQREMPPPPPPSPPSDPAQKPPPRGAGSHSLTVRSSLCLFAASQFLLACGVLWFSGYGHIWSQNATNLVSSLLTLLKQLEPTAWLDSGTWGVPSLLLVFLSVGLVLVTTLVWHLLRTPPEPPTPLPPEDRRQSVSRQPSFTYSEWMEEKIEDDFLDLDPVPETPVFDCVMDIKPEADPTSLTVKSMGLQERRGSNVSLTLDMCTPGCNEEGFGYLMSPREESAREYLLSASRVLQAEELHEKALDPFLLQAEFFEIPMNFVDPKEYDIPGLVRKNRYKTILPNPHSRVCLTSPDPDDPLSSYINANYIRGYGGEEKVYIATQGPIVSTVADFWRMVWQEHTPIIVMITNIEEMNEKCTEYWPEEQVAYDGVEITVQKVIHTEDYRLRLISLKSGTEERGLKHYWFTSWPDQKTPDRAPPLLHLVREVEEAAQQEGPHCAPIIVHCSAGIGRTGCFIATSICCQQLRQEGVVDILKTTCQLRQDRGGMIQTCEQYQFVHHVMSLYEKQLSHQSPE

[5] = tested on: Vero; assay: viability loss in Vero cells – cell-based, plate reader, cherry-pick samples, cytotoxicity control, dose response (AID 687020); format: functional; settings: Chlorocebus sabaeus
[6] = tested on: A549; assay: viability loss in A549 cells – cell-based, plate reader, cherry-pick samples, cytotoxicity control, dose response (AID 687028); format: functional; settings: Homo sapiens
[7] = tested on: BHK-21; assay: viability loss in BHK-21 cells – cell-based, plate reader, cherry-pick samples, cytotoxicity control, dose response (AID 687030); format: functional; settings: Mesocricetus auratus
[8] = Luminescence Cell-Based Dose Retest to Confirm Inhibitors of Cancer Stem Cells. [Related pubchem assays (depositor defined):AID2717, AID2721]; format: functional; settings: Homo sapiens
[9] = blockers of CRF-binding protein–CRF-R2 complex – cell-based, uHTS hits, 384-well, dose response (AID 651639); format: functional, Homo sapiens; settings: read-out: IC50_Mean
[10] = biological target: Low molecular weight phosphotyrosine protein phosphatase (Homo sapiens, UniProt P24666); format: functional; settings: read-out: IC50_Mean
Sequence of Low molecular weight phosphotyrosine protein phosphatase (P24666 whole entry): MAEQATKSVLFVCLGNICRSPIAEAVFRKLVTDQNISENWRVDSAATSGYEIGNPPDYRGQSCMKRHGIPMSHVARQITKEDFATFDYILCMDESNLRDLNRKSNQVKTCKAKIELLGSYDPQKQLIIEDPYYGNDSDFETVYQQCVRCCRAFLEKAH

[11] = biological target: Beta-lactamase (Pseudomonas aeruginosa, UniProt Q79MP6);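 note: biochemical dose-response test of metallo-beta-lactamase enzyme inhibition, read out by epi-absorbance; purified recombinant IMP-1 metallo-beta-lactamase with nitrocefin as substrate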
Sequence of Beta-lactamase (Pseudomonas aeruginosa, UniProt Q79MP6) (Q79MP6 whole entry): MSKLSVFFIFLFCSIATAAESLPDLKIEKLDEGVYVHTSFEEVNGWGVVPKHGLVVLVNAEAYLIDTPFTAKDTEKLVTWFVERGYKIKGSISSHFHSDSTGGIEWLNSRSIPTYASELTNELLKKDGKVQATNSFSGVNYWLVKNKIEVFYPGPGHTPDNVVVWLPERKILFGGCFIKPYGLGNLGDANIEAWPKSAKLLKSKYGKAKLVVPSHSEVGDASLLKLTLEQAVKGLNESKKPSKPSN

[12] = biological target: Beta Lactamase (Pseudomonas aeruginosa, UniProt Q932Y6);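 note: confirmatory high-throughput screen measuring VIM-2 metallo-beta-lactamase inhibition by epi-absorbance in dose response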
Sequence of Beta Lactamase (Q932Y6 whole entry): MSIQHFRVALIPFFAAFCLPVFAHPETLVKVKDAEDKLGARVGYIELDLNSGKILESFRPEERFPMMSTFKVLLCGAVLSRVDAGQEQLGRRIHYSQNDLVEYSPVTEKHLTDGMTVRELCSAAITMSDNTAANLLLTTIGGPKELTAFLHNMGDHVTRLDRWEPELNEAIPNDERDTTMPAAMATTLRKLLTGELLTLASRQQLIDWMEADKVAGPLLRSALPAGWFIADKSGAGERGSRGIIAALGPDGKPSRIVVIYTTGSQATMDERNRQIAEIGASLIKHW

[13] = biological target: Beta-lactamase (Salmonella choleraesuis (strain SC-B67), UniProt Q5J463)
Sequence of Beta-lactamase (Salmonella choleraesuis (strain SC-B67), UniProt Q5J463) (Q5J463 whole entry): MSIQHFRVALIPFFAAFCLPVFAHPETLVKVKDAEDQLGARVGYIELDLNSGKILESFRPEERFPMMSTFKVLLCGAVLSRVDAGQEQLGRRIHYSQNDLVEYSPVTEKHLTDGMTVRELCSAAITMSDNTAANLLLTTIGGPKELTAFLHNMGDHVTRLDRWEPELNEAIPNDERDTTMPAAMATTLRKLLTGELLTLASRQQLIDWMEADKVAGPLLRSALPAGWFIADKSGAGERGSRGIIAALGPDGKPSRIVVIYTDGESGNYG

[14] = tested on: Streptococcus; assay: GAS UMAA2166 growth inhibition – luminescence, BacTiterGlo, counter-screen for streptokinase expression inhibitor project, dose response (AID 1915); format: functional, organism-based;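 note: potency for reduction of bacterial viability or growth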
[15] = biological target: T1, Streptokinase A (Streptococcus pyogenes serotype M1, UniProt P10520); assay: viability-normalized secreted streptokinase activity reduction – plasminogen activation absorbance, OD405, dose response (AID 1914); format: functional, Streptococcus pyogenes M1 GAS;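 note: secreted streptokinase activity via plasminogen activation per viability signal from cell pellet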
T1 sequence (P10520 whole entry): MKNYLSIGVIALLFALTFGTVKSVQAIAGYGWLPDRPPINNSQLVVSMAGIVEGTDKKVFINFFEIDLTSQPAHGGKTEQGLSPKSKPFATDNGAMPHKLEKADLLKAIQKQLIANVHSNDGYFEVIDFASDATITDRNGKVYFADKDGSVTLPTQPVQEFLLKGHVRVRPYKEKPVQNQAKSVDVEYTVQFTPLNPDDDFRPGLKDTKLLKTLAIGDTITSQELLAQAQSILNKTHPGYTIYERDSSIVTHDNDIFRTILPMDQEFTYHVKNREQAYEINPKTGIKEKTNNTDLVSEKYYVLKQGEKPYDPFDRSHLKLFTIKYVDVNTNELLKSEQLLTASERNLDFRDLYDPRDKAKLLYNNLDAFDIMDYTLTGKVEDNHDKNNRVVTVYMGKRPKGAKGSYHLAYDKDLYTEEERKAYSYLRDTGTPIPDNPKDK

[16] = tested on: Streptococcus sp. 'group A'; assay: Streptococcus pyogenes SK(-)GAS viability under kanamycin – luminescence, BacTiterGlo, confirmation, counter-screen for streptokinase expression inhibitor project, dose response (AID 1900); format: functional, organism-based
[17] = biological target: Matrix metalloproteinase-14 (Homo sapiens, UniProt P50281); assay: Dose Response confirmation of uHTS hits for a small molecule inhibitors of MT1-MMP activation in a fluorescence assay set 1.; format: functional

Sequence of Beta-galactosidase (Q8VNN2 whole entry): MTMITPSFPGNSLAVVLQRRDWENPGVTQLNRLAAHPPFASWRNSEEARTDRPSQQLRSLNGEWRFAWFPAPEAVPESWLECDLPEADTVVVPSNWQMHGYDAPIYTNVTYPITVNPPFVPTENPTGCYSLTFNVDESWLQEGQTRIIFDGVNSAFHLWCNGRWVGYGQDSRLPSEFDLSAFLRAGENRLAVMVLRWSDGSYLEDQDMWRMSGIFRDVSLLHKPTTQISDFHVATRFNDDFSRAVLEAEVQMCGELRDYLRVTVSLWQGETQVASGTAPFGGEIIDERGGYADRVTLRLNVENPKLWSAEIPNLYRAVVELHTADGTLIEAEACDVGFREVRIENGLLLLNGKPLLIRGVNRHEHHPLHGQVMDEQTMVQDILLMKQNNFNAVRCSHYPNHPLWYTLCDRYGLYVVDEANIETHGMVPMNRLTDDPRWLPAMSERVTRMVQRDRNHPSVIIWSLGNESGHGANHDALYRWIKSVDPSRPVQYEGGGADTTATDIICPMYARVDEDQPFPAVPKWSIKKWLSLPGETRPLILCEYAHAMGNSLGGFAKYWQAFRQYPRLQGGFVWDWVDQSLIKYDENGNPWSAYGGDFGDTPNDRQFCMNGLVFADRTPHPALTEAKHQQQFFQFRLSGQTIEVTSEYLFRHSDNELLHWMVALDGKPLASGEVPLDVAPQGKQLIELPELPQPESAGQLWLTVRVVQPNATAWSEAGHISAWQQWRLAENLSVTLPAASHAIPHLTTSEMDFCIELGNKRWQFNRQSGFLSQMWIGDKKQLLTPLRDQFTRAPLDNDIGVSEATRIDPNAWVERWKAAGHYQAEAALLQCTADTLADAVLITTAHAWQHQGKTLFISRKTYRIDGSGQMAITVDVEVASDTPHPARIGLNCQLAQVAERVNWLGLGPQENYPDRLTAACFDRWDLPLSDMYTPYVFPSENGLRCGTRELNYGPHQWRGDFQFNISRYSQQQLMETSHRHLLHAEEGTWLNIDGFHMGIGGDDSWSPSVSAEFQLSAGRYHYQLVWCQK

O=C(/C=C/c1ccc(Cl)cc1)N1CCN(Cc2ccccc2)CC1
IC50 [1]: > 80 µM (inactive)

Cc1ccc(NC(=O)CN2C(=O)S/C(=C\c3ccc(OCC(=O)O)c(Br)c3)C2=O)cc1
IC50 [2]: 6.91 µM (active)
IC50 [3]: 6.33 µM (active)
IC50 [4]: > 80 µM (inactive)

CC1CCCN(CCCOc2ccc(Br)cc2Cl)C1 (configuration not stated)
AC50 [5]: 25.2 µM (active)
AC50 [6]: 27.2 µM (active)
AC50 [7]: 38.8 µM (active)
AC50 [8]: 8.98 µM (active)

Cc1sc2nc(CN(Cc3cccs3)C(=O)NC3CCCCC3)nc(O)c2c1C
IC50 [9]: 19.7 µM (active)

O=C(O)[C@@H]1[C@H]2C[C@H]3c4[nH]c5ccccc5c4CCN3C[C@@H]2CC[C@@H]1O
IC50 [10]: 67.6 µM (inactive)

CC(=O)N(c1cccc(C)c1)C1SC(=O)N(c2ccccc2)C1=O (configuration not stated)
IC50 [11]: 30.8 µM (inactive)
IC50 [12]: 54.3 µM (inactive)
IC50 [13]: > 59.6 µM (inactive)

N#CC(C#N)=NNc1ccc([N+](=O)[O-])cc1
EC50 [14]: 9.99 µM (active)
EC50 [15]: > 150 µM (not active)
EC50 [16]: 3.82 µM (active)
IC50 [17]: 32.3 µM (inactive)
